Several values for one entry are separate records, joined by “and”; a condition that tells them apart may be missing. Identical values can stand only once. Like-named read-outs stand apart in the source and are kept apart here.
Legend:
Mino cells = assay: AlamarBlue cell viability assay, Mino; format: cell-based; settings: for Mino Cell Viability%: Figure 2f, 5 replicates; for IC50: Mino cells, 72 h, Alamar Blue
Method: (§1) The IC50 was calculated using GraphPad Prism software with a four-parameter dose-response curve fit.

BTK-NanoLuc fusion = molecular target: T1, BTK-NanoLuc fusion (Homo sapiens, UniProt Q06187); assay: NanoBRET BTK in-cell target engagement assay; format: cell-based; settings: for NanoBRET(%): Figure 3d, triplicates
T1 construct: host or cells: HEK 293T/17
T1 sequence (Q06187 whole entry, the tested form may be a part): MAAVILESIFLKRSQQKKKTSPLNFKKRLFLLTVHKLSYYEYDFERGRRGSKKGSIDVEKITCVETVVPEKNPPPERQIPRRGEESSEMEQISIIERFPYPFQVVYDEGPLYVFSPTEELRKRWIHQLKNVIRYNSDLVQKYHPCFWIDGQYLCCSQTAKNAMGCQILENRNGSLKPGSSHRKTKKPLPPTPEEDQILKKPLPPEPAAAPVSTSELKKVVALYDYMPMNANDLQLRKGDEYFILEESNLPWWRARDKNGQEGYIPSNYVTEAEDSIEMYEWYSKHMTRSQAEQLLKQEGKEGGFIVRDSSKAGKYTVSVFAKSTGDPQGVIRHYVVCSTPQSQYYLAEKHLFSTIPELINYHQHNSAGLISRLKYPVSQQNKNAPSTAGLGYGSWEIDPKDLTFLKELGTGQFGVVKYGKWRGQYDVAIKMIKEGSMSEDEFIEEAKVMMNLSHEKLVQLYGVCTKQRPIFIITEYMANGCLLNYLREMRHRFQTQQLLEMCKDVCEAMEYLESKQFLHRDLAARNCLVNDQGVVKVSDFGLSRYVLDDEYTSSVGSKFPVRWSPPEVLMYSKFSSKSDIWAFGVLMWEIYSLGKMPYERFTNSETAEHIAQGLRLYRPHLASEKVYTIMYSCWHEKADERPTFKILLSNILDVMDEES
Method: The target engagement assay for BTK or CRBN was from Promega (BTK kit, Cat. No. N2500; CRBN kit, Cat. No. CS1810C136) and was performed according to the manufacture’s instruction with some modifications. Briefly, HEK 293/T17 cells (ATCC) were transiently transfected with BTK-NanoLuc® fusion vector or NanoLuc®-CRBN fusion vector (Promega) in 0.125 M CaCl2 and 1x HBS. Forty-eight hours after transfection, the cells were resuspended in Opti-MEM medium (Life Technologies, Cat. No. 11058021) at the density of 2 × 10^5 cells per mL and were plated into 96-well plates (Corning, Cat. No. CLS3600). Cells were incubated with 1.0 µM (BTK) or 0.5 µM (CRBN) NanoBRET™ Tracer and serially diluted unlabeled BTK PROTAC compounds (from 10 to 0.0032 µM, 5-fold dilution) for 2 h at 37 °С with 5% CO2 in an incubator. After 2 h incubation, the 3X Nano-Glo® Substrate with NanoLuc® extracellular inhibitor were added to cells and developed for 3 min at room temperature. BRET signals were collected using a BioTek SYNERGY H1 microplate reader equipped with a 450/80-nm BP filter for donor emission and a 610-nm LP filter for acceptor emission. BRET Ratio was calculated with the equation: [(Acceptor sample/Donor sample)–(Acceptor no tracer control/Donor no tracer control)] × 1000. The IC50 of the compound against its BTK or CRBN tracer was calculated using GraphPad Prism software.

MOLM-14 cells = assay: AlamarBlue cell viability assay, MOLM-14; settings: for MOLM-14 Cell Viability%: Figure 2f, 5 replicates
Method: as §1

BTK [1] = molecular target: BTK (Homo sapiens, UniProt Q06187); assay: BTK degradation in MOLM-14 cells (western blot); format: cell-based; set-up: endogenous in cells; host or cells: MOLM-14; settings: Figure 2b, duplicates
BTK (Homo sapiens, UniProt Q06187), sequence (Q06187 whole entry): as the sequence (Q06187 whole entry, the tested form may be a part) above

BTK [2] = molecular target: BTK (Mus musculus, UniProt P35991); assay: BTK degradation in mouse B-cell lymphoma cell line derived from Eu-Myc mice; format: cell-based; set-up: endogenous in cells; host or cells: B cell lymphoma cell line derived from Eu-Myc mice; settings: Supplementary Figure 10, replicates, DMSO about 100
BTK (Mus musculus, UniProt P35991), sequence (P35991 whole entry): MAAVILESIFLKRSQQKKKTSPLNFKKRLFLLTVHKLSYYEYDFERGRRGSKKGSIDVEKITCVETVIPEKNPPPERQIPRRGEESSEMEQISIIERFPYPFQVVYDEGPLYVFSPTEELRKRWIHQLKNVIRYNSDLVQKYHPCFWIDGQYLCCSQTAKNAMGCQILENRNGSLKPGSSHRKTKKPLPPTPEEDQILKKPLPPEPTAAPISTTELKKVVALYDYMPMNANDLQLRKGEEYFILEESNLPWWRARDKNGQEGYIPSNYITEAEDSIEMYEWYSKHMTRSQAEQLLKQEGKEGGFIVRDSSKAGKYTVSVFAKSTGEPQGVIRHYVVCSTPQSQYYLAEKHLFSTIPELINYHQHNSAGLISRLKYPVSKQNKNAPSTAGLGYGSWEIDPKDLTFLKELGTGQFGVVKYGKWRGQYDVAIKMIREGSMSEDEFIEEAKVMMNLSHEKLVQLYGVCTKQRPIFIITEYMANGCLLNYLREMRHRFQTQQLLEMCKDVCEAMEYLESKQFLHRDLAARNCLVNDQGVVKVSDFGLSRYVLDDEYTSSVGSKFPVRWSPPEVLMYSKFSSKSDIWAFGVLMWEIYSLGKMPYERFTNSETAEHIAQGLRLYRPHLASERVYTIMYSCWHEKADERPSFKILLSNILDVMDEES
Method: MOLM-14 cell line was obtained from Dr. Conneely at Baylor College of Medicine, and the Mino cells were purchased from the American Type Culture Collection (ATCC, Cat. No. CRL-3000). Both cell lines were cultured in RPMI 1640 medium (Thermo Fisher Scientific, Cat. No. MT10040CV) supplemented with 10% fetal bovine serum (GE Healthcare, Cat. No. SH30071.03) and 1% Pen/Strep (Thermo Fisher Scientific, Cat. No. 15140163). The wild-type and C481S BTK XLA cell lines were gifts from Dr. Woyach at The Ohio State University and were cultured in RPMI 1640 medium with 15% fetal bovine serum, 1% Pen/Strep, and 1.0 µg/ml puromycin (Thermo Fisher Scientific, Cat. No. A1113803). HEK 293T/17 cells were purchased from ATCC (Cat. No. CRL-11268) were maintained in DMEM (Thermo Fisher Scientific, Cat. No. MT10013CV) with 10% fetal bovine serum and 1% Pen-Strep. The B cell lymphoma cell line derived from Eu-Myc mice was a gift from Dr. Yulin Li at Houston Methodist Research Institute and cultured in RPMI 1640 medium supplemented with 15% (v/v) fetal bovine serum (FBS), 100 U/mL penicillin, 100 μg/mL streptomycin, and 0.05 mM beta-mercaptoethanol and puromycin (1 μg/mL). Cells were grown at 37 °C with 5% CO2.
The collected cells and spleen tissues were lysed in RIPA lysis buffer (50 mM Tris-HCl, pH 7.4, 150 mM NaCl, 1% NP-40, 0.5% sodium deoxycholate, 0.1% SDS) supplemented with Halt™ Protease and Phosphatase Inhibitor Cocktail (Thermo Fisher Scientific, Cat. No. PI78440) immediately before use. Lysates were centrifuged at 15,000 × g for 10 min at 4 °C and the supernatant was quantified for total protein concentration using the Pierce BCA Protein Assay (Thermo Fisher Scientific, Cat. No. 23225). Thirty micrograms of protein were loaded onto sodium dodecyl sulfate−polyacrylamide gel for electrophoresis (Bio-Rad) and transferred onto PVDF membranes (Millipore, Cat. No. IPVH00010). […] Imaging was performed using the ECL Prime chemiluminescent western blot detection reagents (GE Healthcare, Cat. No. RPN2232) by visualization of the blots to X-Ray film or with an Imager (Kindle Biosciences, Cat. No. D1001). All western blots were subsequently processed and quantified with Imager software. Protein level was normalized to β-actin or GAPDH loading controls.

SMILES | Mino Cell Viability% (Mino cells; 1.00E-06 M) | Mino Cell Viability% (Mino cells; 1.60E-09 M) | Mino Cell Viability% (Mino cells; 2.00E-07 M) | Mino Cell Viability% (Mino cells; 3.20E-10 M) | Mino Cell Viability% (Mino cells; 4.00E-08 M) | Mino Cell Viability% (Mino cells; 5.00E-06 M) | Mino Cell Viability% (Mino cells; 8.00E-09 M) | NanoBRET(%) (BTK-NanoLuc fusion; 1.00E-05 M) | NanoBRET(%) (BTK-NanoLuc fusion; 1.60E-08 M) | NanoBRET(%) (BTK-NanoLuc fusion; 2.00E-06 M) | NanoBRET(%) (BTK-NanoLuc fusion; 3.20E-09 M) | NanoBRET(%) (BTK-NanoLuc fusion; 4.00E-07 M) | NanoBRET(%) (BTK-NanoLuc fusion; 8.00E-08 M) | MOLM-14 Cell Viability% (MOLM-14 cells; 1.00E-05 M) | MOLM-14 Cell Viability% (MOLM-14 cells; 1.60E-08 M) | MOLM-14 Cell Viability% (MOLM-14 cells; 2.00E-06 M) | MOLM-14 Cell Viability% (MOLM-14 cells; 3.20E-09 M) | MOLM-14 Cell Viability% (MOLM-14 cells; 4.00E-07 M) | MOLM-14 Cell Viability% (MOLM-14 cells; 6.40E-10 M) | MOLM-14 Cell Viability% (MOLM-14 cells; 8.00E-08 M) | also measured
Nc1ncnc2c1c(-c1ccc(Oc3ccccc3)cc1)nn2C1CCN(CCOCCOCC(=O)Nc2ccc3c(c2)C(=O)N(C2CCC(=O)NC2=O)C3=O)CC1 (stereo not drawn) [MT-802, reference compound] | 55.7423% and 49.4302% and 55.3437% and 39.2835% and 54.1265% | 110.483% and 109.05% and 93.6147% and 92.6129% and 76.2619% | 89.5862% and 87.1949% and 82.8432% and 61.1711% and 66.0828% | 84.5559% and 99.9483% and 73.8491% and 92.4729% and 74.9908% | 100.53% and 96.2968% and 92.2144% and 82.8217% and 85.9885% | 34.2209% and 40.5007% and 48.9347% and 30.3001% and 41.1685% | 99.2266% and 99.1512% and 91.8158% and 60.6002% and 61.5373% | 8.881% and 7.144% and 4.414% | 91.6984% and 97.1324% and 98.4487% | 18.1369% and 17.2809% and 19.5819% | 100.618% and 96.0652% and 96.5159% | 66.8491% and 61.8713% and 67.4598% | 83.5249% and 103.088% and 96.5333% | 30.9193% and 24.2086% and 26.5576% and 19.8014% and 27.7094% | 94.0978% and 96.8402% and 91.572% and 84.5934% and 78.4642% | 75.5166% and 72.09% and 75.4424% and 57.762% and 72.8197% | 96.9942% and 95.4205% and 85.785% and 84.5706% and 80.2089% | 88.0029% and 82.2386% and 86.6288% and 76.8507% and 80.4769% | 81.9593% and 80.8361% and 77.1985% and 75.6192% and 75.9328% | 97.8209% and 89.394% and 93.0772% and 82.672% and 84.7872% | IC50 (Mino cells; Homo sapiens): 1000 nM; IC50 (BTK-NanoLuc fusion; HEK-293 cells, BTK tracer 1.0 µM, experiment of Fig. 3d, read-out: BTK target engagement IC50): 660 nM; IC50 (MOLM-14 cells; Homo sapiens, MOLM-14, 72 h, read-out: Cell viability IC50, MOLM-14 cells, 72 h, Alamar Blue): 4700 nM; Quantification anti-BTK / anti-β-actin (BTK level vs DMSO) (BTK [1]; 8 nM): 79.5706 and 82.6481; Quantification anti-BTK / anti-β-actin (BTK level vs DMSO) (BTK [1]; 40 nM): 47.7374 and 48.0125; Quantification anti-BTK / anti-β-actin (BTK level vs DMSO) (BTK [1]; 200 nM): 22.5968 and 20.4165; BTK quantification (anti-BTK / anti-β-actin) (BTK [2]; 8 nM): 79.5706 and 82.6481; BTK quantification (anti-BTK / anti-β-actin) (BTK [2]; 40 nM): 47.7374 and 48.0125; BTK quantification (anti-BTK / anti-β-actin) (BTK [2]; 200 nM): 22.5968 and 20.4165
Cc1c(NC(=O)c2ccc(C(C)(C)C)cc2)cccc1-c1cn(C)c(=O)c(Nc2ccc(C(=O)N3CCN(CCCCCCNC(=O)CNc4cccc5c4C(=O)N(C4CCC(=O)NC4=O)C5=O)CC3)cc2)n1 (stereo not drawn) [DD-03-171, reference compound] | 32.4788% and 32.2293% and 34.0942% and 35.4207% and 39.7021% | 121.168% and 104.266% and 118.227% and 107.943% and 119.96% | 36.6289% and 34.2124% and 35.7227% and 37.3775% and 42.3025% | 132.424% and 103.701% and 122.994% and 107.72% and 141.013% | 54.0832% and 46.6234% and 39.8335% and 52.888% and 75.1359% | 39.9385% and 37.4432% and 38.9273% and 39.4395% and 47.3326% | 56.5785% and 60.1245% and 102.834% and 110.123% and 118.502% | 22.6421% and 28.6973% and 22% | 88.8537% and 90.4209% and 91.9881% | 21.3125% and 25.7571% and 22.7507% | 94.8868% and 96.3909% and 104.805% | 28.4685% and 42.1101% and 35.114% | 85.0919% and 75.63% and 91.5725% | 97.5451% and 84.66% and 89.4149% and 67.5953% and 78.1969% | 83.9791% and 92.5848% and 65.981% and 62.9872% and 76.0308% | 93.025% and 80.0636% and 90.2426% and 67.3429% and 78.4493% | 93.7588% and 71.6575% and 86.4445% and 88.7633% and 72.8844% | 97.2809% and 75.3792% and 70.6831% and 69.0687% and 74.7981% | 106.497% and 80.5215% and 63.4862% and 80.6741% and 69.8495% | 102.353% and 96.782% and 97.1048% and 76.9172% and 82.8931% | IC50 (Mino cells): 50 nM; IC50 (MOLM-14 cells; read-out: Cell viability IC50, MOLM-14 cells, 72 h, Alamar Blue): > 10000 nM
